Source: PubChem BioAssay AID248 (DTP/NCI, 2004)
“And” between values parts separate entries of the source, which are not always exact repeats. Equal values may be shown once. Inconclusive results and toxic doses are left out. No stated cut-off is given here; in the data, active means T/C of 150% or more; inactive means T/C below 125%.

System: L1210 leukemia ip in BDF1 mice, survival T/C
Assay: NCI In Vivo Anticancer Drug Screen. Data for tumor model L1210 Leukemia (intraperitoneal) in B6D2F1 (BDF1) mice
Settings: endpoint: mean survival time, higher = longer survival
Procedure, shortened: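 In this screen, tumor-bearing mice given compound are compared to those given vehicle, and their survival values are reported as a treated-to-control quotient.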

Measured: T/C

Clc1ccc(-c2ncc3cnccn23)cc1Cl
inactive: dose: 25.0 mg/kg/injection, schedule: Q01DX009 (ip), vehicle: saline with Tween-80 92 % of control | dose: 25.0 mg/kg/injection, schedule: Q04DX003 (ip), vehicle: saline with Tween-80 96 % of control | dose: 50.0 mg/kg/injection, schedule: Q01DX009 (ip), vehicle: saline with Tween-80 96 % of control | dose: 50.0 mg/kg/injection, schedule: Q04DX003 (ip), vehicle: saline with Tween-80 103 % of control | dose: 100.0 mg/kg/injection, schedule: Q04DX003 (ip), vehicle: saline with Tween-80 94 % of control and 96 % of control

CC(=O)c1ccc(C#N)cc1.[Co+3].[NH2-].[NH2-].[NH2-].[NH2-].[NH2-].[O-][Cl+3]([O-])([O-])O
inactive: dose: 100.0 mg/kg/injection, schedule: Q04DX002 (ip), vehicle: saline 104 % of control | dose: 200.0 mg/kg/injection, schedule: Q04DX002 (ip), vehicle: saline 111 % of control | dose: 400.0 mg/kg/injection, schedule: Q04DX002 (ip), vehicle: saline 108 % of control

COc1ccc(/C=C2\CCC3C(CCCC34OCCO4)C2=O)cc1 (centres undefined)
inactive: dose: 100.0 mg/kg/injection, schedule: Q01DX009 (ip), vehicle: saline 88 % of control | dose: 100.0 mg/kg/injection, schedule: Q04DX003 (ip), vehicle: saline 101 % of control | dose: 200.0 mg/kg/injection, schedule: Q01DX009 (ip), vehicle: saline 101 % of control | dose: 200.0 mg/kg/injection, schedule: Q04DX003 (ip), vehicle: saline 97 % of control | dose: 400.0 mg/kg/injection, schedule: Q01DX009 (ip), vehicle: saline 104 % of control | dose: 400.0 mg/kg/injection, schedule: Q04DX003 (ip), vehicle: saline 99 % of control
